IC50 and Emax data for 17 molecules are collected here from patent publication US20260137706A1, “METHODS OF TREATING INFLAMMATORY DISEASES” (INTERLINE THERAPEUTICS, INC., priority 2023, published 2026).

Read-outs that look alike come from different tables or passages of the source.

Assay [1] deals with T1, GST-RIPK2 fusion protein (human RIPK2, amino acids 1-310) (Homo sapiens, UniProt O43353).
T1 construct: made in house; host or cells: baculovirus infected Sf9 cells
The assay can be described thus: RIPK2 binding competition assay (TR-FRET, Tracer 199 displacement). From the text: The ability of selected compounds of Formula (I) to inhibit the binding of an Alexa647-labelled ATP-competitive kinase inhibitor to a GST-RIPK2 fusion protein was quantified employing the TR-FRET-based RIPK2 binding competition assay as described in the following paragraphs.
Recombinant fusion protein of N-terminal Glutathione-S-Transferase (GST) and a fragment of human RIPK2 (amino acids 1-310 of accession number 043353), expressed in baculovirus infected Sf9 cells, purified via glutathione affinity chromatography, was used as GST-RIPK2 fusion protein. Tracer 199 from Life Technologies (catalogue no. PR9115B) was used as Alexa647-labelled ATP-competitive kinase inhibitor.
For the assay, 50 nL of a 100-fold concentrated solution of each test compound in DMSO was pipetted into either a black low volume 384-well microtiter plate or a black 1536-well microtiter plate (both Greiner Bio-One, Frickenhausen, Germany), 3 μL solution of Tracer 199 (16.7 nM=>final concentration in 5 μL assay volume is 10 nM) in aqueous assay buffer (25 mM Tris/HCl pH 7.5, 10 mM magnesium chloride (MgCl2), 5 mM β-glycerophosphate, 2.5 mM dithiothreitol (DTT), 0.5 mM ethylene glycol-bis(2-aminoethylether)-N,N,N′,N′-tetraacetic acid (EGTA), 0.5 mM sodium ortho-vanadate, 0.01% (w/v) bovine serum albumin (BSA), 0.005% (w/v) Pluronic F-127 (Sigma)) were added. Then the binding competition was started by the addition of 2 μL of a solution of the GST-RIPK2 fusion protein (2.5 nM=>final conc. in the 5 μL assay volume is 1 nM) and of Anti-GST-Tb (1.25 nM=>final conc. in the 5 μL assay volume is 0.5 nM), a Lumi4®—Tb cryptate-conjugated anti-GST antibody from PerkinElmer (catalogue no 61GSTTAH), in assay buffer.
The resulting mixture was incubated 45 min at 22° C. to allow the formation of a complex between the Tracer 199, the fusion protein and Anti-GST-Tb. Subsequently, the amount of this complex was evaluated by measurement of the resonance energy transfer from the Tb-cryptate to the Tracer 199. Therefore, the fluorescence emissions at 620 nm and 665 nm after excitation at 337 nm were measured in a TR-FRET reader, e.g. a Pherastar FS (BMG Labtechnologies, Offenburg, Germany) or a Viewlux (PerkinElmer). The ratio of the emissions at 665 nm and at 620 nm was taken as the measure of the amount of the complex. The data were normalized (assay reaction without inhibitor=0% activity, all other assay components but no GST-RIPK2 fusion protein=−100% activity).
Table A1 below lists IC50 values of selected compounds of Formula (I) measured in the RIPK2 binding competition assay.
A general note: In TR-FRET formats the signal depends on donor and acceptor labels being close together.

Assay [2] concerns NF-κB pathway (SEAP) in THP1-Dual cells. The assay can be described thus: THP-1 Dual cell SEAP assay (L18-MDP stimulated). The format is cell-based. Conditions: Homo sapiens, THP1-Dual, read-out: NF-κB THP1 IC50 bin. A digest of the protocol:
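IC50 values derive from non-linear regression of % inhibition, calculated against DMSO/L18-MDP-treated wells after media-only subtraction. NF-κB SEAP activity was read at OD 620-655 nm (QUANTI-Blue, 2 h, 37 °C) from supernatants of THP1-Dual cells. Cells had been compound-treated 30 min before overnight (20-24 h) stimulation with 10 ng/mL final L18-MDP.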

Assay [3] deals with T2, binding of His-XIAP(BIR2)-avi fusion protein to GST-RIPK2 fusion protein (RIPK2/XIAP) (Homo sapiens, UniProt O43353).
T2 construct: made in house; host or cells: baculovirus infected Sf9 cells
Description: RIPK2-XIAP binding competition PPI assay (TR-FRET). Conditions: RIPK2/XIAP binding competition PPI assay; for Emax: Amax, read-out: PPI Amax bin. A digest of the protocol: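 Compounds (in DMSO, 100-fold stock) incubated 120 min at 23 °C with 1 nM GST-RIPK2 (aa 1-310) and 25 nM His-XIAP(BIR2 aa 152-231)-avi, plus anti-His-XL665 and anti-GST-Tb, in pH 7.5 Tris buffer. Read-out: 665/520 nm emission ratio. Normalized to no-inhibitor (0%) and 50 nM GSK583 (−100%); Amax binned A–D.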

Setting [4] is: 10 nM Tracer 199, 1 nM GST-RIPK2, read-out: RIPK2 IC50.

T2 sequence (O43353 1-310 limits assumed): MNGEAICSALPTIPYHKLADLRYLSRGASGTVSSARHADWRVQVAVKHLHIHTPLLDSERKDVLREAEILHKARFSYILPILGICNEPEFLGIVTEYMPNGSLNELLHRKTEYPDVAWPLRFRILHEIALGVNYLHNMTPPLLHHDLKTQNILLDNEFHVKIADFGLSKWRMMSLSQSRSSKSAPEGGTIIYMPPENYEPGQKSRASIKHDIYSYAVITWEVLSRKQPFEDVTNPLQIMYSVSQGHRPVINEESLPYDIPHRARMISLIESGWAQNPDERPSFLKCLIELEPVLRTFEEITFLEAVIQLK
T1 sequence (O43353 1-310): as the sequence (O43353 1-310 limits assumed) above

For `CCCS(=O)(=O)Nc1cc(-c2cnc3cc(OC)c(S(=O)(=O)C(C)(C)CO)cn23)cc(OC)c1OC` [Example 59, N-(5-(6-((1-hydroxy-2-methylpropan-2-yl)sulfonyl)-7-methoxyimidazo[1,2-a]pyridin-3-yl)-2,3-dimethoxyphenyl)propane-1-sulfonamide], the half-maximal inhibitory concentration (IC50) in assay [1] (setting [4]) was below 1 nM; in assay [2], below 50 nM; in assay [3] (read-out: PPI IC50 bin) it was below 1 nM. Further, in assay [3], the Emax was above 80%.
For the molecule `Nc1cc(-c2cnn3ccc(C(F)(F)F)cc23)cc(F)n1` [Example 3, 6-fluoro-4-(5-(trifluoromethyl)pyrazolo[1,5-a]pyridin-3-yl)pyridin-2-amine], the IC50 in assay [1] (setting [4]) was above 20 nM; in assay [2], 250 to 1000 nM; in assay [3] (read-out: PPI IC50 bin), above 20 nM. For the same molecule, the Emax in assay [3] was below 30%.
On to `COc1cc2ncc(-c3cc(F)c(OC)c(NS(=O)(=O)c4cnn(C)c4)c3)n2cc1C1(F)CCNCC1` [Example 276, N-(3-fluoro-5-(6-(4-fluoropiperidin-4-yl)-7-methoxyimidazo[1,2-a]pyridin-3-yl)-2-methoxyphenyl)-1-methyl-1H-pyrazole-4-sulfonamide], for which the IC50 in assay [1] (setting [4]) is 1 to 2.5 nM; in assay [2], 50 to 250 nM; in assay [3] (read-out: PPI IC50 bin) it was below 1 nM. In addition, the Emax in assay [3] is above 80%.
For `COC(=O)Nc1ccc(-c2cnc3cc(OC)c(S(=O)(=O)C(C)(C)C)cn23)cn1` [Example 9, methyl (5-(6-(tert-butylsulfonyl)-7-methoxyimidazo[1,2-a]pyridin-3-yl)pyridin-2-yl)carbamate], in that order: above 20 nM, above 1000 nM, above 20 nM and below 30%.
For `C[C@@H](O)COc1cc2ncc(-c3ccc(N)nc3F)n2cc1S(=O)(=O)C(C)(C)C` [Example 250, (R)-1-((3-(6-amino-2-fluoropyridin-3-yl)-6-(tert-butylsulfonyl)imidazo [1,2-a]pyridin-7-yl)oxy)propan-2-ol], in that order: 2.5 to 20 nM, above 1000 nM, above 20 nM and above 80%.
As for `C[C@@H](CO)Oc1cc2ncc(-c3cc(F)c(N)nc3F)n2cc1S(=O)(=O)C(C)(C)C` [Example 173, (S)-2-((3-(6-amino-2,5-difluoropyridin-3-yl)-6-(tert-butylsulfonyl)imidazo[1,2-a]pyridin-7-yl)oxy)propan-1-ol], the concentration for half-maximal inhibition (IC50) in assay [1] (RIPK2 IC50 (nM), 10 nM Tracer 199, 1 nM GST-RIPK2) is 2.5 to 20 nM; in assay [2], above 1000 nM; in assay [3] (PPI IC50 bin), 2.5 to 20 nM. Moreover, in assay [3], the Emax is above 80%.
In the case of `COc1cc2ncc(-c3cc(F)c(OC)c4[nH]c(CN5CC(O)C5)nc34)n2cc1S(=O)(=O)C(C)(C)C` [Example 185, 1-((4-(6-(tert-butylsulfonyl)-7-methoxyimidazo[1,2-a]pyridin-3-yl)-6-fluoro-7-methoxy-1H-benzo[d]imidazol-2-yl)methyl)azetidin-3-ol], the figures for the 50% inhibitory concentration (IC50) in assay [1] (setting [4]), in assay [2] and in assay [3] (read-out: PPI IC50 bin) were 2.5 to 20 nM, 50 to 250 nM and 1 to 2.5 nM, respectively. Moreover, in assay [3], the Emax was in the range of 30 to 55%.
For `CCCS(=O)(=O)Nc1cc(-c2cnn3cc(OC)c(S(=O)(=O)C(C)(C)CO)cc23)cc(F)c1OC` [Example 132], in that order: below 1 nM, below 50 nM, below 1 nM and above 80%.
In the same order, the values of `C[C@@H](O)COc1cn2ncc(-c3cc(Cl)c(N)nc3F)c2cc1S(=O)(=O)C(C)(C)C` [Example 254, (R)-1-((3-(6-amino-5-chloro-2-fluoropyridin-3-yl)-5-(tert-butylsulfonyl)pyrazolo [1,5-a]pyridin-6-yl)oxy)propan-2-ol] are 1 to 2.5 nM, 50 to 250 nM, 1 to 2.5 nM and above 80%.
In the same order, the values of `CC(C)(C)S(=O)(=O)c1cn2c(-c3ccc(N)nc3F)cnc2cc1OCCO` [Example 249, 2-((3-(6-amino-2-fluoropyridin-3-yl)-6-(tert-butylsulfonyl)imidazo [1,2-a]pyridin-7-yl)oxy)ethan-1-ol] are above 20 nM, above 1000 nM, above 20 nM and above 80%.
Take `COc1cc2ncc(-c3cc(F)c(OC)c(NS(=O)(=O)c4cnn(C)c4)c3)n2cc1S(C)(=O)=O` [Example 214, N-(3-fluoro-2-methoxy-5-(7-methoxy-6-(methylsulfonyl)imidazo[1,2-a]pyridin-3-yl)phenyl)-1-methyl-1H-pyrazole-4-sulfonamide]: the IC50 in assay [1] (setting [4]) is below 1 nM; in assay [2], 50 to 250 nM; in assay [3] (read-out: PPI IC50 bin), below 1 nM. In addition, in assay [3], the Emax is above 80%.
As to `CC(C)(C)S(=O)(=O)c1cc2c(-c3cc(Cl)c(N)nc3F)cnn2cc1OCCOP(=O)(O)O` [Example 187, 2-((3-(6-amino-5-chloro-2-fluoropyridin-3-yl)-5-(tert-butylsulfonyl)pyrazolo[1,5-a]pyridin-6-yl)oxy)ethyl dihydrogen phosphate], the IC50 in assay [1] (setting [4]) lay in the range of 2.5 to 20 nM; in assay [2], 250 to 1000 nM; in assay [3] (read-out: PPI IC50 bin), 2.5 to 20 nM. Further, in assay [3], the Emax is above 80%.
Turning to `COc1cc2ncc(-c3cnn4c(C)c(C)ccc34)n2cc1S(=O)(=O)C(C)(C)C` [Example 107, 6-(tert-butylsulfonyl)-3-(6,7-dimethylpyrazolo[1,5-a]pyridin-3-yl)-7-methoxyimidazo[1,2-a]pyridine], the half-maximal inhibitory concentration (IC50) was above 20 nM in assay [1] (setting [4]), above 1000 nM in assay [2] and above 20 nM in assay [3] (read-out: PPI IC50 bin). In addition, the Emax in assay [3] was 55 to 80%.
For the molecule `C[C@H](O)CCOc1cc2ncc(-c3cc(F)c(N)nc3F)n2cc1S(=O)(=O)C(C)(C)C` [Example 34, (S)-4-((3-(6-amino-2,5-difluoropyridin-3-yl)-6-(tert-butylsulfonyl)imidazo[1,2-a]pyridin-7-yl)oxy)butan-2-ol], the values for the IC50 in assay [1] (setting [4]), in assay [2] and in assay [3] (read-out: PPI IC50 bin) were 2.5 to 20 nM, 250 to 1000 nM and 2.5 to 20 nM, respectively. For the same molecule, in assay [3], the Emax is above 80%.
Take `CC(C)(C)S(=O)(=O)c1cc2c(-c3cc(Cl)c(N)nc3F)cnn2cc1OCC(O)CO` (centres unmarked) [Example 247, 3-((3-(6-amino-5-chloro-2-fluoropyridin-3-yl)-5-(tert-butylsulfonyl)pyrazolo [1,5-a]pyridin-6-yl)oxy)propane-1,2-diol]: the IC50 lay in the range of 1 to 2.5 nM in assay [1] (setting [4]), 50 to 250 nM in assay [2] and 1 to 2.5 nM in assay [3] (read-out: PPI IC50 bin). Also, in assay [3], the Emax is above 80%.
`COc1cc2ncc(-c3cc(F)c(N)nc3F)n2cc1S(=O)(=O)C1(C)CCN(C2COC2)CC1` [Example 124, 3,6-difluoro-5-(7-methoxy-6-((4-methyl-1-(oxetan-3-yl)piperidin-4-yl)sulfonyl)imidazo[1,2-a]pyridin-3-yl)pyridin-2-amine]: the concentration for half-maximal inhibition (IC50) in assay [1] (setting [4]) was 2.5 to 20 nM; in assay [2], above 1000 nM; in assay [3] (read-out: PPI IC50 bin) it was above 20 nM. The Emax in assay [3] is above 80%.
For `COc1cc2ncc(-c3ccc4nc(N)oc4c3)n2cc1S(=O)(=O)C(C)(C)C` [Example 96, 6-(6-(tert-butylsulfonyl)-7-methoxyimidazo[1,2-a]pyridin-3-yl)benzo[d]oxazol-2-amine], in that order: 2.5 to 20 nM, 250 to 1000 nM, above 20 nM and below 30%.

The term IC50 denotes the concentration that inhibits the measured activity by half.
